Test results as given in patent publication US12544371B2, “Methods and compositions for treating acute lung injury and acute respiratory distress syndrome” (CalciMedica, Inc., priority 2020, dated 2026).
Where two headings read alike, the source gives them in different places.

Experiments:
[1] = system: 3T3; test: In vitro 3T3 phototoxicity; format: cell-based
[2] = system: IL-17 release by human PBMCs; test: IL-17 release by human PBMCs, isolated cell assay; format: cell-based; settings: PBMC, SEM (n), read-out: Compound 1 IC50, IL-17 release by human PBMCs
Excerpt: (§1) CRAC channels may play a proximal role in a calcium-calcineurin pathway leading to cytokine release in immune cells.

[3] = Rat model of acute pancreatitis (caerulein-induced), IV infusion; format: in vivo
[4] = Mouse TLCS-induced and FAEE-induced pancreatitis models; format: in vivo
Excerpt: Potential efficacy of Compound 1 in treating acute lung injury was established in three diverse in vivo models of AP that cause both pancreatic damage and lung inflammation (TLCS-induced, FAEE-induced, and caerulein-induced acute pancreatitis models).

[5] = system: IL-2 released from human PBMCs; test: Cytokine released from human PBMCs: IL-2; format: cell-based
Excerpt: as §1

[6] = Phase 1 single ascending dose study (Compound 1 Test 101), healthy subjects; format: in vivo, human
Excerpt: Two Phase 1 studies of N-(5-(6-Chloro-2,2-difluorobenzo[d][1,3]dioxol-5-yl)pyrazin-2-yl)-2-fluoro-6-methylbenzamide (Compound 1) have been conducted in healthy subjects: a single ascending dose (SAD) study (Compound 1 Test 101) and a multiple ascending dose (MAD) study (Compound 1 Test 102). In Compound 1 Test 101 (Table 1), 32 healthy subjects were enrolled in five groups and randomized in a 3:1 ratio to receive a single dose of active versus placebo. The dose levels for each group are noted in Table 1. The dose volume of the emulsion was fixed at 1.3 mL/kg for all subjects in the SAD study groups, and an injectable emulsion of Compound 1 or placebo was administered via a 4-hour IV infusion.
Plasma concentrations of compound rise steadily during the 4-hour infusion, with Tmax achieved at the end of infusion (4 hours). After the end of infusion, there is a rapid and prominent distribution phase followed by a prolonged period of residual drug levels. The terminal elimination phase has not yet been fully characterized as it appears to be much longer than was anticipated based on pre-clinical PK data in mouse, rat, dog and monkey. Plasma concentrations during the terminal phase are approximately 5% of Cmax values and, as indicated above, to date there have been no clinically significant AEs reported during this phase. Plasma exposures, defined by AUC0-24 h, appear to be dose-proportional and reached a maximum of 6710 ng*h/mL in Group 5, which is 4.3-fold below the mean AUC24 h in monkey at the NOAEL (29,000 ng*hr/mL).

Question: For `Cc1cccc(F)c1C(=O)Nc1cnc(-c2cc3c(cc2Cl)OC(F)(F)O3)cn1` [Compound 1, N-(5-(6-Chloro-2,2-difluorobenzo[d][1,3]dioxol-5-yl)pyrazin-2-yl)-2-fluoro-6-methylbenzamide], which “phototoxicity, in vitro 3T3” value [1] is on record?
Answer: potentially phototoxic

Question: What about the IC50 [2] of the same molecule?
Answer: 122 ± 36 nM

Question: And the “lung myeloperoxidase activity (neutrophil infiltration)” value [3]?
Answer: decrease

Question: And the “mRNA levels of the cytokines TNFα and IL-6 (lung)” value [3]?
Answer: decrease

Question: What about the “effect of timing of administration on minimizing pancreatic injury” value ([4]; administered early in the course of disease, later administration retains effectiveness) of the same molecule?
Answer: may be more effective

Question: What about the “lung myeloperoxidase; pancreas trypsin activity, myeloperoxidase activity and histopathological indices” value ([4]; mouse TLCS-induced and FAEE-induced pancreatitis, two IP doses) of the same molecule?
Answer: markedly reduced

Question: And the IC50 ([5]; Homo sapiens, PBMC, mean of replicates, read-out: Mean IC50, IL-2 released from human PBMCs)?
Answer: 59 nM

Question: What about the IC50 ([5]; Homo sapiens, PBMC, single replicates, read-out: Replicate IC50 values, IL-2 released from human PBMCs) of the same molecule?
Answer: 71 nM

Question: What about the IC50 ([5]; single replicates, read-out: Replicate IC50 values, IL-2 released from human PBMCs) of the same molecule?
Answer: 47 nM

Question: And the “margin of AUC0-24 h below mean AUC24 h in monkey at the NOAEL” value ([6]; SAD Group 5)?
Answer: 4.3 fold

Question: What about the Tmax ([6]; human, in vivo) of the same molecule?
Answer: 4 h

Question: What about the “cardiac function: heart rate, QTcF, cardiac troponin-T, B-type natriuretic peptide” value ([6]; human, in vivo) of the same molecule?
Answer: no evidence of any treatment related effect

Question: And the “clinically significant laboratory abnormalities” value ([6]; human, in vivo)?
Answer: No laboratory abnormalities

Question: What about the “distribution compartments, non-compartmental PK analysis” value ([6]; human, in vivo) of the same molecule?
Answer: three compartments

Question: What about the “dose proportionality of plasma exposure (AUC0-24 h)” value ([6]; human, in vivo) of the same molecule?
Answer: dose-proportional

Question: What about the “number of clinical AEs (all mild)” value ([6]; human, in vivo) of the same molecule?
Answer: three

Question: What about the “plasma concentrations during the terminal phase relative to Cmax” value ([6]; human, in vivo) of the same molecule?
Answer: approximately 5 % of Cmax

Question: And the “systolic or diastolic blood pressure” value ([6]; human, in vivo)?
Answer: no evidence of any sustained treatment related increase

Question: And the AUC(0-t) ([6]; human, in vivo, 2.1 mg/kg)?
Answer: 6710 ng·h/mL
